Data taken from US11549946B2, “Method for detecting cholangiocarcinoma cells” (National Tsing Hua University, priority 2019, dated 2023).

Tests used:
white blood cells (WBCs) = test: On-bench capture test of WBCs using octasaccharide-coated beads; assay type: cell-based; settings: WBCs versus CCA cells (Huh28)
Procedure: In order to determine whether SCH-45 and SCH-46 can be promising tools for use in clinical examination at an early stage or on the prognostic tracking of cancer, such as blood test, an on-bench capture test of WBCs using SCH-45 and SCH-46 of 100 μM-coated beads was performed in this example.
The whole blood used in this example was provided by National Cheng Kung University Hospital and stored at 4° C. (IRB number: A-ER-103-063 and A-ER-105-109). In order to achieve good efficiency in cancer cell capturing using octasaccharide-coated beads with the blood sample, whole blood was pretreated to remove blood cells, including red blood cells (RBCs) and white blood cells (WBCs). In other words, the whole blood pretreatment process contained a RBC lysis step and a WBC depletion step. […] Whole blood was inoculated with 10^5 Huh28 cells in a 1.5 mL Eppendorf tube. Then, on-bench RBC lysis was performed using a commercial RBC lysis buffer (Cat. 420301, BioLegend®, USA) diluted to 1× working concentration with DI water. The 100 μL of spiked sample was incubated with 1×RBC lysis buffer at a 1:10 volume/volume ratio on a wheeling rotor at 25 rpm, C2 mode for 5 mins, and then centrifuged at 1200 rpm for 5 mins to discard the supernatant. The pellets were washed twice and resuspended in 100 μL of 1× phosphate buffered saline (PBS) buffer. […]

Huh28 (CCA cell line) = test: Capture test of cell lines by octasaccharide-coated magnetic beads (traditional shaker); assay type: cell-based, human; settings: 30 mins
Text: The cell lines utilized in this example were SNU478, HuCCT1, Huh28, KKU100, MMNK1, BxPC3, HepG2 and HCT8, SNU478, HuCCT1, Huh28, KKU100, and MMNK1 were supplied by Division of Surgery, National Cheng Kung University Hospital, Taiwan. BxPC3 and HepG2 were supplied by Dr. Kuang Hung Cheng, Institute of Biomedical Science, National Sun Yat-sen University, Taiwan. HCT8 was supplied by Professor Hwan-You Chang, Institute of Life Science, National Tsing Hua University, Taiwan. SNU478, HuCCT1, Huh28 and KKU100 were used as target cells for positive selection, which are CCA cell lines respectively derived from the ampulla of Vater, the intrahepatic-metastasized ascites, the intrahepatic bile duct and the opisthorchis viverrini-related hilar bile duct. For negative selection, MMNK1 (immortalized biliary epithelial), and various types of cancer cell lines, including BxPC3 (pancreatic cancer), HepG2 (liver cancer) and HCT8 (colorectal cancer) were used. […]
In this example, the capture test for the eight cell lines mentioned above was performed with ten octasaccharides to determine their affinity. […] After the incubation, they were washed twice and the amount of captured cells was calculated by a hemocytometer under an inverted microscope. […]

HCT8 (colorectal cancer) = test: as above; assay type: cell-based; settings: 30 mins
Text: (§1) The cell lines utilized in this example were SNU478, HuCCT1, Huh28, KKU100, MMNK1, BxPC3, HepG2 and HCT8, SNU478, HuCCT1, Huh28, KKU100, and MMNK1 were supplied by Division of Surgery, National Cheng Kung University Hospital, Taiwan. BxPC3 and HepG2 were supplied by Dr. Kuang Hung Cheng, Institute of Biomedical Science, National Sun Yat-sen University, Taiwan. HCT8 was supplied by Professor Hwan-You Chang, Institute of Life Science, National Tsing Hua University, Taiwan. SNU478, HuCCT1, Huh28 and KKU100 were used as target cells for positive selection, which are CCA cell lines respectively derived from the ampulla of Vater, the intrahepatic-metastasized ascites, the intrahepatic bile duct and the opisthorchis viverrini-related hilar bile duct. For negative selection, MMNK1 (immortalized biliary epithelial), and various types of cancer cell lines, including BxPC3 (pancreatic cancer), HepG2 (liver cancer) and HCT8 (colorectal cancer) were used. Among these cell lines, SNU478, HuCCT1, Huh28, BxPC3 and HCT8 were identically cultured in Roswell Park Memorial Institute 1640 (RPMI 1640, Gibco®, Thermo Fisher Scientific, USA) containing 100 U/mL penicillin and 100 μg/mL streptomycin (Pen Strep, Gibco®, Thermo Fisher Scientific, USA), 10% fetal bovine serum (FBS, Gibco®, Thermo Fisher Scientific, USA). The growth medium for KKU100, MMNK-1 and HepG2 was Dulbecco's modified eagle medium (DMEM, Gibco®, Thermo Fisher Scientific, USA) complemented with the additives described above. All cells were cultured in a humidified incubator at 37° C. under an atmosphere containing 5% CO2.
(§2) In this example, the cells were captured by magnetic beads. The surface of magnetic beads was coated, respectively, with three concentrations of ten kinds of heparan sulfate (HS) octasaccharides, that is, from SCH-43 to SCH-52. The magnetic beads used in this example were Dynabeads® MyOne™ Streptavidin T1 (˜7-10×10^9 beads/mL, Ø=1 μm, Invitrogen, Thermo Fisher Scientific, USA). Briefly, each octasaccharide of 1 μM, 10 μM and 100 μM concentration were first incubated with magnetic beads in a volume/volume ratio of 1:10, and placed on the wheeling rotator (RM-2L INTELLI-mixer, ELMI Ltd., Latvia) at 25 rpm, C2 mode for 30 mins at room temperature. The beads were then collected using a magnetic particle concentrator (MPC, Dynabeads® MPC®-1, Life Technologies) for 2 mins, followed by discarding the supernatant and washing the coated beads three times with 1 mL of deionized (DI) water. Finally, the coated beads were suspended in the same volume of DI water as the initial volume of Dynabeads®.
(§3) In this example, the capture test for the eight cell lines mentioned above was performed with ten octasaccharides to determine their affinity. Therefore, by using the traditional shaker, 2×10^5 cells were incubated with three kinds of concentration (1 μM, 10 μM and 100 μM) of each octasaccharide for 30 mins. After the incubation, they were washed twice and the amount of captured cells was calculated by a hemocytometer under an inverted microscope. Through statistical analysis by ANOVA, the octasaccharides which bound to one cell line with high specificity was compared to other cell lines.

HepG2 (liver cancer) = test: as above; assay type: cell-based; settings: 30 mins
Text: as §1, §2, §3

KKU100 (CCA cell line) = test: as above; assay type: cell-based; settings: 30 mins
Text: as §1, §2, §3

[1] = tested on: BxPC3 (pancreatic cancer); test: as above; assay type: cell-based; settings: 30 mins
Text: as §1, §2, §3

[2] = tested on: MMNK1 (immortalized biliary epithelial); test: as above; assay type: cell-based; settings: 30 mins
Text: as §1, §2, §3

SNU478 (CCA cell line) = test: as above; assay type: cell-based; settings: 30 mins
Text: as §1, §2, §3

HuCCT1 (CCA cell line) = test: as above; assay type: cell-based; settings: 30 mins
Text: as §1, §2, §3

[3] = beads coated with 1 μM octasaccharide
[4] = beads coated with 10 μM octasaccharide
[5] = beads coated with 100 μM octasaccharide

In the case of O=C(CCCC[C@@H]1SC[C@@H]2NC(=O)N[C@@H]21)NCCCOCCOCCOCCOCCOCCOCCC(=O)NCCCCCO[C@@H]1O[C@H](C(=O)O)[C@@H](O[C@H]2O[C@H](COS(=O)(=O)O)[C@@H](O[C@@H]3O[C@@H](C(=O)O)[C@@H](O[C@H]4O[C@H](COS(=O)(=O)O)[C@@H](O[C@@H]5O[C@H](C(=O)O)[C@@H](O[C@H]6O[C@H](COS(=O)(=O)O)[C@@H](O[C@@H]7O[C@@H](C(=O)O)[C@@H](O[C@H]8O[C@H](COS(=O)(=O)O)[C@@H](O)[C@H](O)[C@H]8NS(=O)(=O)O)[C@H](O)[C@H]7OS(=O)(=O)O)[C@H](O)[C@H]6NS(=O)(=O)O)[C@H](O)[C@H]5OS(=O)(=O)O)[C@H](O)[C@H]4NS(=O)(=O)O)[C@H](O)[C@H]3OS(=O)(=O)O)[C@H](O)[C@H]2NS(=O)(=O)O)[C@H](O)[C@H]1OS(=O)(=O)O [SCH-45], the “ratio of WBC capture rate to CCA” value (white blood cells (WBCs)) is reported as 5×10^−5, the capture rate (Huh28 (CCA cell line); [3]) is reported as 66 ± 6% and the capture rate (Huh28 (CCA cell line); [4]) is reported as 67 ± 3%. It also gave a capture rate (HCT8 (colorectal cancer); [3]) of 16 ± 3%, a capture rate (HCT8 (colorectal cancer); [4]) of 13 ± 0% and a capture rate (HCT8 (colorectal cancer); [5]) of 9 ± 2%. For the same molecule, the capture rate (HepG2 (liver cancer); [3]) was 14 ± 1%, the capture rate (HepG2 (liver cancer); [4]) was 11 ± 4% and the capture rate (HepG2 (liver cancer); [5]) was 9 ± 6%. It also gave a capture rate (KKU100 (CCA cell line); [3]) of 42 ± 3%, a capture rate (KKU100 (CCA cell line); [4]) of 44 ± 2% and a capture rate (KKU100 (CCA cell line); [5]) of 41 ± 11%. The capture rate [1, 3] was 16 ± 6%, the capture rate [1, 4] was 11 ± 3% and the capture rate [1, 5] was 7 ± 3%. For the same molecule, the capture rate [2, 3] was 55 ± 7%, the capture rate [2, 4] was 47 ± 20% and the capture rate [2, 5] was 16±8%. The capture rate (SNU478 (CCA cell line); [3]) was 20 ± 5%, the capture rate (SNU478 (CCA cell line); [4]) was 17 ± 7% and the capture rate (SNU478 (CCA cell line); [5]) was 16 ± 8%. The capture rate (HuCCT1 (CCA cell line); [3]) was 5 ± 1%, the capture rate (HuCCT1 (CCA cell line); [4]) was 5 ± 2% and the capture rate (HuCCT1 (CCA cell line); [5]) was 4 ± 2%.
